Measurements reported in patent US20130005747A1, “METHOD FOR SELECTING A CANCER THERAPY” (Cyclacel Limited, priority 2010, published 2013).

Legend:
Assay in all cases: Fractional growth, 72 h seliciclib
Type in all cases: cell-based, human
[1] = system: MES-SA; settings: MES-SA (Uterus), 15 μM seliciclib
Description: (§1) A total of 270 human cancer cell lines from diverse cancer histopathologic types were investigated.

[2] = system: BxPC-3; settings: BxPC-3 (Pancreas), 15 μM seliciclib
Description: as §1

[3] = system: BFTC-909; settings: BFTC-909 (Kidney), 15 μM seliciclib
Description: as §1

[4] = system: BPH-1; settings: BPH-1 (Prostate), 15 μM seliciclib
Description: as §1

[5] = system: AZ-521; settings: AZ-521 (Stomach), 15 μM seliciclib
Description: as §1

[6] = system: SW756; settings: SW756 (Cervix), 15 μM seliciclib
Description: as §1

[7] = system: NCI-H841; settings: NCI-H841 (Lung), 15 μM seliciclib
Description: as §1

[8] = system: Hs 633T; settings: Hs 633T (Miscellaneous), 15 μM seliciclib
Description: as §1

[9] = system: OE21; settings: OE21 (Esophagus), 15 μM seliciclib
Description: as §1

[10] = system: Ca Ski; settings: Ca Ski (Cervix), 15 μM seliciclib
Description: as §1

[11] = system: CS1R; settings: CS1R (Bone), 15 μM seliciclib
Description: as §1

[12] = system: SK-MES; settings: SK-MES (Lung: NSCLC), 15 μM seliciclib
Description: as §1

[13] = system: Hs 766T; settings: Hs 766T (Pancreas), 15 μM seliciclib
Description: as §1

[14] = system: SK-N-AS; settings: SK-N-AS (Brain), 15 μM seliciclib
Description: as §1

[15] = system: DAN-G; settings: DAN-G (Pancreas), 15 μM seliciclib
Description: as §1

[16] = system: NCI-H1781; settings: NCI-H1781 (Lung: NSCLC), 15 μM seliciclib
Description: as §1

[17] = system: GAMG; settings: GAMG (Brain), 15 μM seliciclib
Description: as §1

[18] = system: NCI-H1581; settings: NCI-H1581 (Lung: NSCLC), 15 μM seliciclib
Description: as §1

[19] = system: NH-6; settings: NH-6 (Kidney), 15 μM seliciclib
Description: as §1

[20] = system: C32; settings: C32 (Skin), 15 μM seliciclib
Description: as §1

[21] = system: 769-P; settings: 769-P (Kidney), 15 μM seliciclib
Description: as §1

[22] = system: JHH-6; settings: JHH-6 (Liver), 15 μM seliciclib
Description: as §1

[23] = system: VM-CUB1; settings: VM-CUB1 (Bladder), 15 μM seliciclib
Description: as §1

[24] = system: PC-9; settings: PC-9 (Lung: NSCLC), 15 μM seliciclib
Description: as §1

[25] = system: SHP-77; settings: SHP-77 (Lung), 15 μM seliciclib
Description: as §1

[26] = system: SN-12C; settings: SN-12C (Kidney), 15 μM seliciclib
Description: as §1

[27] = system: KP-3L; settings: KP-3L (Pancreas), 15 μM seliciclib
Description: as §1

[28] = system: KU-19-19; settings: KU-19-19 (Bladder), 15 μM seliciclib
Description: as §1

[29] = system: PCI-30; settings: PCI-30 (Head & Neck), 15 μM seliciclib
Description: as §1

[30] = system: MFE-280; settings: MFE-280 (Uterus), 15 μM seliciclib
Description: as §1

[31] = system: LNZTA3WT4; settings: LNZTA3WT4 (Brain), 15 μM seliciclib
Description: as §1

[32] = system: SKG-IIIb; settings: SKG-IIIb (Cervix), 15 μM seliciclib
Description: as §1

[33] = system: Lu-135; settings: Lu-135 (Lung), 15 μM seliciclib
Description: as §1

[34] = system: T24; settings: T24 (Bladder), 15 μM seliciclib
Description: as §1

[35] = system: HCC-366; settings: HCC-366 (Lung: NSCLC), 15 μM seliciclib
Description: as §1

[36] = system: H2596; settings: H2596 (Lung), 15 μM seliciclib
Description: as §1

[37] = system: PCI-38; settings: PCI-38 (Head & Neck), 15 μM seliciclib
Description: as §1

CC[C@H](CO)Nc1nc(NCc2ccccc2)c2ncn(C(C)C)c2n1 [seliciclib, roscovitine]
Fractional Growth [1]: 0.3922 | Fractional Growth [2]: 0.671 | Fractional Growth [3]: 0.7132 | Fractional Growth [4]: 0.6039 | Fractional Growth [5]: 0.5115 | Fractional Growth [6]: 0.6484 | Fractional Growth [7]: 0.7639 | Fractional Growth [8]: 0.41 | Fractional Growth [9]: 0.4083 | Fractional Growth [10]: 0.591 | Fractional Growth [11]: 0.2923 | Fractional Growth [12]: 0.4439 | Fractional Growth [13]: 0.4284 | Fractional Growth [14]: 0.7261 | Fractional Growth [15]: 0.6841 | Fractional Growth [16]: 0.6273 | Fractional Growth [17]: 0.571 | Fractional Growth [18]: 0.7659 | Fractional Growth [19]: 0.5218 | Fractional Growth [20]: 0.5391 | Fractional Growth [21]: 0.602 | Fractional Growth [22]: 0.3234 | Fractional Growth [23]: 0.3307 | Fractional Growth [24]: 0.7822 | Fractional Growth [25]: 0.617 | Fractional Growth [26]: 0.6383 | Fractional Growth [27]: 0.4338 | Fractional Growth [28]: 0.3033 | Fractional Growth [29]: 0.5541 | Fractional Growth [30]: 0.5959 | Fractional Growth [31]: 0.6936 | Fractional Growth [32]: 0.6636 | Fractional Growth [33]: 0.2812 | Fractional Growth [34]: 0.5262 | Fractional Growth [35]: 0.2561 | Fractional Growth [36]: 0.7486 | Fractional Growth [37]: 0.3656
